Converted amounts (≈) assume the structure as drawn. The source made the active and inactive calls. The rule behind the calls is not given here.
Columns and labels:
Staphylococcus aureus [1] = assay: Antibacterial activity against Staphylococcus aureus ATCC 25923 incubated at 37 degC for 20 hrs by standard broth microdilution method; format: functional; details: ATCC 25923, 20 h
Escherichia coli = assay: Antibacterial activity against Escherichia coli ATCC 25922 incubated at 37 degC for 20 hrs by standard broth microdilution method; format: functional; details: ATCC 25922, 20 h
Streptococcus pyogenes = assay: Antibacterial activity against Streptococcus pyogenes ATCC 19615 incubated at 37 degC for 20 hrs by agar dilution method; format: functional; details: ATCC 19615, 20 h
[2] = test system: Staphylococcus epidermidis; assay: Antibacterial activity against Staphylococcus albus AS1.3374 incubated at 37 degC for 20 hrs by agar dilution method; format: functional; details: AS1.3374, 20 h
[3] = test system: Staphylococcus epidermidis; assay: Antibacterial activity against Staphylococcus epidermidis ATCC 12228 incubated at 37 degC for 20 hrs by agar dilution method; format: functional; details: ATCC 12228, 20 h
Staphylococcus aureus [4] = assay: Bacteriostatic activity against Staphylococcus aureus ATCC 25923 at 1 times MIC incubated for 24 hrs by time kill curve assay; format: functional, organism-based
Staphylococcus aureus [5] = assay: Bactericidal activity against Staphylococcus aureus ATCC 25923 at 4 times MIC incubated for 24 hrs by time kill curve assay; format: functional, organism-based
Staphylococcus aureus [6] = assay: Antibacterial activity against Staphylococcus aureus ATCC 29213 incubated at 37 degC for 20 hrs by agar dilution method; format: functional; details: ATCC 29213, 20 h
Staphylococcus aureus [7] = assay: Antibacterial activity against Staphylococcus aureus ATCC 6538 incubated at 37 degC for 20 hrs by agar dilution method; format: functional; details: ATCC 6538, 20 h
Staphylococcus aureus [8] = assay: Antibacterial activity against Staphylococcus aureus CMCC 26003 incubated at 37 degC for 20 hrs by agar dilution method; format: functional; details: CMCC 26003, 20 h
Staphylococcus aureus [9] = assay: Antibacterial activity against Staphylococcus aureus ATCC 33591 incubated at 37 degC for 20 hrs by agar dilution method; format: functional; details: ATCC 33591, 20 h
Staphylococcus aureus [10] = assay: Antibacterial activity against Staphylococcus aureus ATCC 43300 incubated at 37 degC for 20 hrs by agar dilution method; format: functional; details: ATCC 43300, 20 h
Enterococcus faecalis [11] = assay: Antibacterial activity against Enterococcus faecalis ATCC 33186 incubated at 37 degC for 20 hrs by agar dilution method; format: functional; details: ATCC 33186, 20 h
Enterococcus faecalis [12] = assay: Antibacterial activity against Enterococcus faecalis ATCC 35667 incubated at 37 degC for 20 hrs by agar dilution method; format: functional; details: ATCC 35667, 20 h
Pseudomonas aeruginosa [13] = assay: Antibacterial activity against Pseudomonas aeruginosa ATCC 27853 incubated at 37 degC for 20 hrs by agar dilution method; format: functional; details: ATCC 27853, 20 h
Pseudomonas aeruginosa [14] = assay: Antibacterial activity against Pseudomonas aeruginosa ATCC 9027 incubated at 37 degC for 20 hrs by agar dilution method; format: functional; details: ATCC 9027, 20 h
Pseudomonas aeruginosa [15] = assay: Antibacterial activity against Pseudomonas aeruginosa CMCC 10104 incubated at 37 degC for 20 hrs by agar dilution method; format: functional; details: CMCC 10104, 20 h
Klebsiella pneumoniae [16] = assay: Antibacterial activity against Klebsiella pneumoniae ATCC 4352 incubated at 37 degC for 20 hrs by agar dilution method; format: functional; details: ATCC 4352, 20 h
Klebsiella pneumoniae [17] = assay: Antibacterial activity against Klebsiella pneumoniae ATCC 700603 incubated at 37 degC for 20 hrs by agar dilution method; format: functional; details: ATCC 700603, 20 h
Klebsiella pneumoniae [18] = assay: Antibacterial activity against Klebsiella pneumoniae CMCC 46117 incubated at 37 degC for 20 hrs by agar dilution method; format: functional; details: CMCC 46117, 20 h
Staphylococcus aureus [19] = assay: Bactericidal activity against Staphylococcus aureus ATCC 25923 assessed as bacterial load at 4 times MIC measured within 2 hrs post dose by time kill curve assay; format: functional
Staphylococcus aureus [20] = assay: Bacteriostatic activity against Staphylococcus aureus ATCC 25923 assessed as bacterial load at 1 times MIC incubated for 24 hrs by time kill curve assay; format: functional
Staphylococcus aureus [21] = assay: Induction of cell wall destruction in Staphylococcus aureus ATCC 25923 at 1 times MIC incubated for 0.5 hrs Gram staining based assay; format: functional, organism-based
Staphylococcus aureus [22] = assay: Induction of cell wall destruction in Staphylococcus aureus ATCC 25923 at 4 times MIC incubated for 1 hr Gram staining based assay; format: functional, organism-based
Staphylococcus aureus [23] = assay: Antibacterial activity against Staphylococcus aureus; format: functional
Streptococcus mutans = assay: Antibacterial activity against Streptococcus mutans; format: functional
Candida albicans = assay: Antimicrobial activity against Candida albicans; format: functional

C=CCc1cc(CN2CCN(C(C)=O)CC2)c(O)c(-c2ccc(O)c(CC=C)c2)c1
MIC90 (Staphylococcus aureus [1]): > 256 µg/mL
MIC90 (Escherichia coli): > 256 µg/mL

CC(=O)NC[C@H]1CN(c2ccc(N3CCOCC3)c(F)c2)C(=O)O1 [LINEZOLID]
MIC90 (Staphylococcus aureus [1]): 2 µg/mL (≈ 5.93 µM)
MIC90 (Escherichia coli): > 256 µg/mL
MIC (Streptococcus pyogenes): 0.5 µg/mL (≈ 1.48 µM)
MIC [2]: 2 µg/mL (≈ 5.93 µM)
MIC [3]: 2 µg/mL (≈ 5.93 µM)
Activity (Staphylococcus aureus [4]): Active
Activity (Staphylococcus aureus [5]): Active

C=CCc1cc(CO)c(O)c(-c2ccc(O)c(CC=C)c2)c1
MIC90 (Staphylococcus aureus [1]): 32 µg/mL (≈ 108 µM)
MIC90 (Escherichia coli): > 256 µg/mL

C=CCc1cc(CO)c(O)c(-c2cc(CO)c(O)c(CC=C)c2)c1
MIC90 (Staphylococcus aureus [1]): 64 µg/mL (≈ 196 µM)
MIC90 (Escherichia coli): > 256 µg/mL

C=CCc1cc(CN2CCN(C(C)C)CC2)c(O)c(-c2ccc(O)c(CC=C)c2)c1
MIC90 (Staphylococcus aureus [1]): > 256 µg/mL
MIC90 (Escherichia coli): 128 µg/mL (≈ 315 µM)

C=CCc1cc(CN2CCCC(NC(=O)OC(C)(C)C)C2)c(O)c(-c2ccc(O)c(CC=C)c2)c1 (stereo not drawn)
MIC90 (Staphylococcus aureus [1]): > 256 µg/mL
MIC90 (Escherichia coli): > 256 µg/mL

C=CCc1cc(CN2CCC(N3CCCC(N)C3)CC2)c(O)c(-c2ccc(O)c(CC=C)c2)c1 (stereo not drawn)
MIC (Staphylococcus aureus [1]): 16 µg/mL (≈ 34.7 µM)
MIC90 (Staphylococcus aureus [1]): 16 µg/mL (≈ 34.7 µM)
MIC (Escherichia coli): 128 µg/mL (≈ 277 µM)
MIC90 (Escherichia coli): 128 µg/mL (≈ 277 µM)
MIC (Staphylococcus aureus [6]): 16 µg/mL (≈ 34.7 µM)
MIC (Staphylococcus aureus [7]): 16 µg/mL (≈ 34.7 µM)
MIC (Staphylococcus aureus [8]): 16 µg/mL (≈ 34.7 µM)
MIC (Staphylococcus aureus [9]): 16 µg/mL (≈ 34.7 µM)
MIC (Staphylococcus aureus [10]): 16 µg/mL (≈ 34.7 µM)
MIC (Streptococcus pyogenes): 32 µg/mL (≈ 69.3 µM)
MIC [2]: 16 µg/mL (≈ 34.7 µM)
MIC [3]: 16 µg/mL (≈ 34.7 µM)
MIC (Enterococcus faecalis [11]): 16 µg/mL (≈ 34.7 µM)
MIC (Enterococcus faecalis [12]): 16 µg/mL (≈ 34.7 µM)
MIC (Pseudomonas aeruginosa [13]): > 256 µg/mL
MIC (Pseudomonas aeruginosa [14]): > 256 µg/mL
MIC (Pseudomonas aeruginosa [15]): 64 µg/mL (≈ 139 µM)
MIC (Klebsiella pneumoniae [16]): 16 µg/mL (≈ 34.7 µM)
MIC (Klebsiella pneumoniae [17]): > 256 µg/mL
MIC (Klebsiella pneumoniae [18]): 32 µg/mL (≈ 69.3 µM)

C=CCc1cc(CN2CCC(N3CCNCC3)CC2)c(O)c(-c2ccc(O)c(CC=C)c2)c1
MIC90 (Staphylococcus aureus [1]): 32 µg/mL (≈ 71.5 µM)
MIC90 (Escherichia coli): > 256 µg/mL

C=CCc1cc(CN2CCC(NC(=O)OC(C)(C)C)CC2)c(O)c(-c2ccc(O)c(CC=C)c2)c1
MIC90 (Staphylococcus aureus [1]): > 256 µg/mL
MIC90 (Escherichia coli): > 256 µg/mL

C=CCc1cc(CN2CCCC(C)C2)c(O)c(-c2ccc(O)c(CC=C)c2)c1 (stereo not drawn)
MIC90 (Staphylococcus aureus [1]): > 256 µg/mL
MIC90 (Escherichia coli): > 256 µg/mL

C=CCc1cc(CN2CCN(C(=O)OC(C)(C)C)CC2)c(O)c(-c2ccc(O)c(CC=C)c2)c1
MIC90 (Staphylococcus aureus [1]): > 256 µg/mL
MIC90 (Escherichia coli): > 256 µg/mL

NC[C@H]1O[C@H](O[C@H]2[C@H](O)[C@@H](O[C@H]3O[C@H](CO)[C@@H](O)[C@H](N)[C@H]3O)[C@H](N)C[C@@H]2N)[C@H](N)C[C@@H]1O [TOBRAMYCIN]
MIC (Escherichia coli): 0.25 µg/mL (≈ 0.535 µM)
MIC (Pseudomonas aeruginosa [13]): 0.25 µg/mL (≈ 0.535 µM)
MIC (Pseudomonas aeruginosa [14]): 0.5 µg/mL (≈ 1.07 µM)
MIC (Pseudomonas aeruginosa [15]): 2 µg/mL (≈ 4.28 µM)
MIC (Klebsiella pneumoniae [16]): 1 µg/mL (≈ 2.14 µM)
MIC (Klebsiella pneumoniae [17]): 4 µg/mL (≈ 8.56 µM)
MIC (Klebsiella pneumoniae [18]): 0.25 µg/mL (≈ 0.535 µM)

C=CCc1cc(CN2CCN(CCOC)CC2)c(O)c(-c2ccc(O)c(CC=C)c2)c1
MIC90 (Staphylococcus aureus [1]): > 256 µg/mL
MIC90 (Escherichia coli): > 256 µg/mL

C=CCc1cc(CN2CCC(N3CCC(N)CC3)CC2)c(O)c(-c2ccc(O)c(CC=C)c2)c1
MIC (Staphylococcus aureus [1]): 8 µg/mL (≈ 17.3 µM)
MIC90 (Staphylococcus aureus [1]): 8 µg/mL (≈ 17.3 µM)
MIC (Escherichia coli): 16 µg/mL (≈ 34.7 µM)
MIC90 (Escherichia coli): 16 µg/mL (≈ 34.7 µM)
MIC (Staphylococcus aureus [6]): 8 µg/mL (≈ 17.3 µM)
MIC (Staphylococcus aureus [7]): 8 µg/mL (≈ 17.3 µM)
MIC (Staphylococcus aureus [8]): 8 µg/mL (≈ 17.3 µM)
MIC (Staphylococcus aureus [9]): 8 µg/mL (≈ 17.3 µM)
MIC (Staphylococcus aureus [10]): 8 µg/mL (≈ 17.3 µM)
MIC (Streptococcus pyogenes): 8 µg/mL (≈ 17.3 µM)
MIC [2]: 8 µg/mL (≈ 17.3 µM)
MIC [3]: 8 µg/mL (≈ 17.3 µM)
MIC (Enterococcus faecalis [11]): 8 µg/mL (≈ 17.3 µM)
MIC (Enterococcus faecalis [12]): 8 µg/mL (≈ 17.3 µM)
MIC (Pseudomonas aeruginosa [13]): 64 µg/mL (≈ 139 µM)
MIC (Pseudomonas aeruginosa [14]): 64 µg/mL (≈ 139 µM)
MIC (Pseudomonas aeruginosa [15]): 64 µg/mL (≈ 139 µM)
MIC (Klebsiella pneumoniae [16]): 8 µg/mL (≈ 17.3 µM)
MIC (Klebsiella pneumoniae [17]): 64 µg/mL (≈ 139 µM)
MIC (Klebsiella pneumoniae [18]): 8 µg/mL (≈ 17.3 µM)
Activity (Staphylococcus aureus [4]): Dose-dependent effect
Activity (Staphylococcus aureus [5]): Dose-dependent effect
Activity (Staphylococcus aureus [19]): 0 log10CFU/ml
Activity (Staphylococcus aureus [20]): 4 - 5 log10CFU/ml
Activity (Staphylococcus aureus [21]): Active
Activity (Staphylococcus aureus [22]): Active

C=CCc1ccc(O)c(-c2ccc(O)c(CC=C)c2)c1 [HONOKIOL]
MIC (Staphylococcus aureus [23]): 50 µg/mL (≈ 188 µM)
MIC (Streptococcus mutans): 10 µg/mL (≈ 37.5 µM)
MIC (Candida albicans): 32 µg/mL (≈ 120 µM)
MIC90 (Staphylococcus aureus [1]): 16 µg/mL (≈ 60.1 µM)
MIC (Escherichia coli): > 256 µg/mL
MIC90 (Escherichia coli): > 256 µg/mL
MIC (Staphylococcus aureus [6]): 16 µg/mL (≈ 60.1 µM)
MIC (Staphylococcus aureus [7]): 16 µg/mL (≈ 60.1 µM)
MIC (Staphylococcus aureus [8]): 16 µg/mL (≈ 60.1 µM)
MIC (Staphylococcus aureus [9]): 16 µg/mL (≈ 60.1 µM)
MIC (Staphylococcus aureus [10]): 16 µg/mL (≈ 60.1 µM)
MIC (Streptococcus pyogenes): 8 µg/mL (≈ 30 µM)
MIC [2]: 16 µg/mL (≈ 60.1 µM)
MIC [3]: 16 µg/mL (≈ 60.1 µM)
MIC (Enterococcus faecalis [11]): 32 µg/mL (≈ 120 µM)
MIC (Enterococcus faecalis [12]): 32 µg/mL (≈ 120 µM)
MIC (Pseudomonas aeruginosa [13]): > 256 µg/mL
MIC (Pseudomonas aeruginosa [14]): > 256 µg/mL
MIC (Pseudomonas aeruginosa [15]): > 256 µg/mL
MIC (Klebsiella pneumoniae [16]): 32 µg/mL (≈ 120 µM)
MIC (Klebsiella pneumoniae [17]): > 256 µg/mL
MIC (Klebsiella pneumoniae [18]): 32 µg/mL (≈ 120 µM)

CN[C@H](CC(C)C)C(=O)N[C@H]1C(=O)N[C@@H](CC(N)=O)C(=O)N[C@H]2C(=O)N[C@H]3C(=O)N[C@H](C(=O)N[C@H](C(=O)O)c4cc(O)cc(O)c4-c4cc3ccc4O)[C@H](O)c3ccc(c(Cl)c3)Oc3cc2cc(c3O[C@@H]2O[C@H](CO)[C@@H](O)[C@H](O)[C@H]2O[C@H]2C[C@](C)(N)[C@H](O)[C@H](C)O2)Oc2ccc(cc2Cl)[C@H]1O [VANCOMYCIN]
MIC90 (Staphylococcus aureus [1]): 1 µg/mL (≈ 0.69 µM)
MIC90 (Escherichia coli): > 256 µg/mL
Activity (Staphylococcus aureus [4]): Active
Activity (Staphylococcus aureus [5]): Active
Activity (Staphylococcus aureus [21]): Active
Activity (Staphylococcus aureus [22]): Active

Source: ChEMBL document CHEMBL4184257, “Design, synthesis and antibacterial evaluation of honokiol derivatives” (2018)
